# Experimental data published in US12415789B2, “Macrocycles comprising a 4-amido-2,4-pentadienoate moiety for the treatment of hypoxic cancers” (Aarhus Universitet, priority 2019, dated 2025).
# Where two headings read alike, the source gives them in different places.
# How the values were obtained:
# Type in all cases: cell-based, human
# HCT116 cells = test: Viability assay (CellTiter Blue), HCT116 cells, hypoxia vs normoxia; conditions: for Index [3] Selectivity index (IC50 [2]/IC50 [1]): HCT116, normoxic IC50 / hypoxic IC50
# Method: (§1) PANC-1 and HaCat cells (PANC-1: RRID:CVCL 0480, taken from a person, HaCat: RRID:CVCL 0038) were cultured in DMEM (Gibco, Cat #: 21969-035) supplemented with FBS (10%, Gibco, Cat #: A31698-02), Penicillin/Streptomycin (1%, Sigma-Aldrich, Cat #: P0781), and Ala-Gln (200 μM, Sigma-Aldrich, Cat #: G8541). BxPC3 cells (RRID:CVCL 0186, taken from a person) were cultured in RPMI 1640 (Gibco, Cat #: 61870-010) supplemented with FBS (10%) and Penicillin/Streptomycin (1%). U2OS (RRID:CVCL 0042) and HCT116 cells (RRID:CVCL 0291, ATCC CCL-247) were cultured in McCoy's 5A (Sigma cat. no. M9309) supplemented with FBS (10%) and Penicillin/Streptomycin (1%). Cells were grown under normoxic conditions in T75 flasks (Biolite, Thermo Scientific, Cat #: 130190) in a humidified atmosphere with 5% CO2 at 37° C. For hypoxic conditions cells were placed in a modular incubator chamber (MIC-101, Billups-Rothenberg) equipped with a 10-cm dish with milliQ water and flushed with CO2/N2 (5%/95%, BioNERT, AGA Cat #: 100466065) for 8 minutes at 20-25 L/minute. Cells were passaged approximately every third day by trypsination (Sigma-Aldrich, Cat #: T4049) followed by transfer of ⅕^th of the cells to a new flask. All cell cultures were handled aseptically in a laminar air flow bench and grown in sterile-filtered (Jetbiofil, Cat #: FPE204500) medium according to ATCC's recommendations. All human cell lines were correctly identified by short tandem repeat analysis and tested free of mycoplasma contamination by MycoAlert (Lonza, Cat #: LT07-218).
# (§2) Cells were seeded in black 96-well plates (2000 cells/well, 75 μL/well, ThermoFisher Scientific, Cat #: 137103) in complete medium. Subsequently, the cells were allowed to adhere to the substratum overnight. The next day, compounds were serially diluted in DMSO as 200× solutions. The 200× solutions of compounds were initially diluted in complete medium to 4× solutions containing 2% DMSO. Finally, the compounds were given to cells by the addition of 25 μL/well in triplicates resulting in 1× solutions of compounds in 100 μL/well. The cells were then incubated under either normoxia or hypoxia. 90 minutes before the end of the experiment, all cells were given CellTiter Blue (20 μL/well, Promega, Cat #: G8080) and reincubated under normoxia for the remaining time of the experiment. The viability of the cells was assessed by measuring fluorescence in a plate reader (ex/em: 552±10/598±10, Tecan Spark 10M). Data were normalized to the two lowest concentrations of compound and fitted to a 4-parameter nonlinear regression in Prism 7.04 for Windows, GraphPad Software, La Jolla Calif. USA. IC50 values were extrapolated as the X value at Y=50%. Results can be found in Table 1 and the corresponding dose-response curves seen in FIGS. 12 to 17 and in FIGS. 9 to 10.
# PANC-1 cells = test: Viability assay (CellTiter Blue), PANC-1 cells, hypoxia vs normoxia; conditions: for Index [3] Selectivity index (IC50 [2]/IC50 [1]): PANC1, normoxic IC50 / hypoxic IC50
# Method: as §1, §2
# BxPC3 cells = test: Viability assay (CellTiter Blue), BxPC3 cells, hypoxia vs normoxia; conditions: for Index [3] Selectivity index (IC50 [2]/IC50 [1]): BxPC3, normoxic IC50 / hypoxic IC50
# Method: as §1, §2
# U2OS cells = test: Viability assay (CellTiter Blue), U2OS cells, hypoxia vs normoxia; conditions: for Index [3] Selectivity index (IC50 [2]/IC50 [1]): normoxic IC50 / hypoxic IC50
# Method: (§3) Cells were seeded in black 96-well plates (2000 cells/well, 75 μL/well, ThermoFisher Scientific, Cat #: 137103) in complete medium. Subsequently, the cells were allowed to adhere to the substratum overnight. The next day, compounds were serially diluted in DMSO as 200× solutions. The 200× solutions of compounds were initially diluted in complete medium to 4× solutions containing 2% DMSO. Finally, the compounds were given to cells by the addition of 25 μL/well in triplicates resulting in 1× solutions of compounds in 100 μL/well. The cells were then incubated under either normoxia or hypoxia. 90 minutes before the end of the experiment, all cells were given CellTiter Blue (20 μL/well, Promega, Cat #: G8080) and reincubated under normoxia for the remaining time of the experiment. The viability of the cells was assessed by measuring fluorescence in a plate reader (ex/em: 552±10/598±10, Tecan Spark 10M). Data were normalized to the two lowest concentrations of compound and fitted to a 4-parameter nonlinear regression in Prism 7.04 for Windows, GraphPad Software, La Jolla Calif. […] IC50 values were extrapolated as the X value at Y=50%.
# HaCat cells = test: Viability assay (CellTiter Blue), HaCat cells, hypoxia vs normoxia; conditions: for Index [3] Selectivity index (IC50 [2]/IC50 [1]): normoxic IC50 / hypoxic IC50
# Method: as §3
# [1] = HCT116, hypoxic conditions, read-out: IC50 (μM) [1]
# [2] = HCT116, normoxic conditions, read-out: IC50 (μM) [2]
# [3] = PANC1, hypoxic conditions, read-out: IC50 (μM) [1]
# [4] = PANC1, normoxic conditions, read-out: IC50 (μM) [2]
# [5] = BxPC3, hypoxic conditions, read-out: IC50 (μM) [1]
# [6] = BxPC3, normoxic conditions, read-out: IC50 (μM) [2]
# [7] = hypoxic conditions, read-out: IC50 (μM) [1]
# [8] = normoxic conditions, read-out: IC50 (μM) [2]
# [9] = Homo sapiens, HCT-116, HCT116, hypoxic conditions, read-out: IC50 (μM) [1]
# [10] = Homo sapiens, HCT-116, HCT116, normoxic conditions, read-out: IC50 (μM) [2]
# [11] = Homo sapiens, PANC-1, PANC1, hypoxic conditions, read-out: IC50 (μM) [1]
# [12] = Homo sapiens, PANC-1, PANC1, normoxic conditions, read-out: IC50 (μM) [2]
# [13] = Homo sapiens, BXPC-3, BxPC3, hypoxic conditions, read-out: IC50 (μM) [1]
# [14] = Homo sapiens, BXPC-3, BxPC3, normoxic conditions, read-out: IC50 (μM) [2]
# [15] = Homo sapiens, hypoxic conditions, read-out: IC50 (μM) [1]
# [16] = Homo sapiens, normoxic conditions, read-out: IC50 (μM) [2]
Compound,IC50 (HCT116 cells; [1]) [µM],IC50 (HCT116 cells; [2]) [µM],IC50 (PANC-1 cells; [3]) [µM],IC50 (PANC-1 cells; [4]) [µM],IC50 (BxPC3 cells; [5]) [µM],IC50 (BxPC3 cells; [6]) [µM],Index [3] Selectivity index (IC50 [2]/IC50 [1]) (HCT116 cells),Index [3] Selectivity index (IC50 [2]/IC50 [1]) (PANC-1 cells),Index [3] Selectivity index (IC50 [2]/IC50 [1]) (BxPC3 cells),other results
"CCCCCCCCCCCCc1ccc2c(c1)OCCNC(=O)CN(C)C(=O)/C=C/C(CO)NC2=O (stereo not shown) [PH462, (E)-16-dodecyl-11-(hydroxymethyl)-7-methyl-3,4,6,7,11,12-hexahydro-benzo[n][1]oxa[4,7,12]triazacyclopentadecine-5,8,13(2H)-trione]",> 50,> 50,> 50,> 50,> 50,> 50,–,–,–,–
"C=C1/C=C/C(=O)N(C)CC(=O)N[C@@H](CC(=O)NC2CC2)COc2cc(CCCCCCCCCCCC)ccc2C(=O)N1 [PH906, (S,E)-N-cyclopropyl-2-(16-dodecyl-7-methyl-11-methylene-5,8,13-trioxo-2,3,4,5,6,7,8,11,12,13-decahydrobenzo[n][1]oxa[4,7,12]-triazacyclopentadecin-3-yl)acetamide]",1.4,> 28,2.3,> 28,–,–,>20.7,>12.1,–,–
"C#CCNC(=O)C[C@H]1COc2cc(CCCCCCCCCCCC)ccc2C(=O)NC(=C)/C=C/C(=O)N(C)CC(=O)N1 [PH845, (S,E)-2-(16-dodecyl-7-methyl-11-methylene-5,8,13-trioxo-2,3,4,5,6,7,8,11,12,13-decahydrobenzo[n][1]oxa[4,7,12]-triazacyclopentadecin-3-yl)-N-(prop-2-yn-1-yl)acetamide]",4.2,> 50,3.1,> 50,–,–,>12.4,>16.4,–,–
"C=C1/C=C/C(=O)N(C)CC(=O)N[C@@H](CC(=O)N2CCOCC2)COc2cc(CCCCCCCCCCCC)ccc2C(=O)N1 [PH741, (S,E)-16-dodecyl-7-methyl-11-methylene-3-(2-morpholino-2-oxoethyl)-3,4,6,7,11,12-hexahydrobenzo[n][1]oxa[4,7,12]triazacyclopentadecine-5,8,13(2H)-trione]",3.3,16.2,7.8,16.3,–,–,4.9,2.1,–,–
"CCCCCCCCCCCCc1ccc2c(c1)OC[C@H](CC(=O)OC)NC(=O)CN(C)C(=O)/C=C/[C@H](CO)NC2=O [PH830, Methyl 2-((3S,11R,E)-16-dodecyl-11-(hydroxymethyl)-7-methyl-5,8,13-trioxo-2,3,4,5,6,7,8,11,12,13-decahydrobenzo[n][1]oxa[4,7,12]-triazacyclopentadecin-3-yl)acetate]",> 50,> 50,> 50,> 50,> 50,> 50,–,–,–,–
"C=C1C=CC(=O)N(C)CC(=O)NCCOc2cc(CCCCCCCCCCCC)ccc2C(=O)N1 [PH466, (E)-16-dodecyl-7-methyl-11-methylene-3,4,6,7,11,12-hexahydro-benzo[n][1]oxa[4,7,12]triazacyclopentadecine-5,8,13(2H)-trione]",0.98,4.2,1.8,4.1,3.4,4.9,4.3,2.3,1.4,IC50 (U2OS cells; [7]): 2.1 µM; Index [3] Selectivity index (IC50 [2]/IC50 [1]) (U2OS cells): 1.8; IC50 (U2OS cells; [8]): 3.8 µM; IC50 (HaCat cells; [7]): 3.9 µM; Index [3] Selectivity index (IC50 [2]/IC50 [1]) (HaCat cells): 1.3; IC50 (HaCat cells; [8]): 4.9 µM
"Nc1n[n+]([O-])c2ccccc2[n+]1[O-] [Tirapazamine, reference compound]",–,–,–,–,–,–,4.0,7.1,2.8,IC50 (HCT116 cells; [9]): 14.4 µM; IC50 (HCT116 cells; [10]): 58 µM; IC50 (PANC-1 cells; [11]): 11 µM; IC50 (PANC-1 cells; [12]): 76 µM; IC50 (BxPC3 cells; [13]): 14 µM; IC50 (BxPC3 cells; [14]): 39 µM; IC50 (U2OS cells; [15]): 98 µM; IC50 (U2OS cells; [16]): 18 µM; Index [3] Selectivity index (IC50 [2]/IC50 [1]) (U2OS cells): 5.5; IC50 (HaCat cells; [15]): 20 µM; IC50 (HaCat cells; [16]): 106 µM; Index [3] Selectivity index (IC50 [2]/IC50 [1]) (HaCat cells): 5.2
"C=C1/C=C/C(=O)N(C)CC(=O)N[C@@H](CC(=O)OC)COc2cc(CCCCCCCCCCCC)ccc2C(=O)N1 [PH832, Methyl (S,E)-2-(16-dodecyl-7-methyl-11-methylene-5,8,13-trioxo-2,3,4,5,6,7,8,11,12,13-decahydrobenzo[n][1]oxa[4,7,12]-triazacyclopentadecin-3-yl)acetate]",5,5.6,4.3,23.3,–,–,1.1,5.4,–,–
"C=C1/C=C/C(=O)N(C)CC(=O)N2CCC[C@H]2COc2cc(CCCCCCCCCCCC)ccc2C(=O)N1 [PH921, (S,E)-16-dodecyl-7-methyl-11-methylene-2,3,6,7,11,12,19,19a-octahydro-1H,5H-benzo[n]pyrrolo[2,1-c][1]oxa[4,7,12]triazacyclo-pentadecine-5,8,13-trione]",2.6,8.4,2.6,13.7,6,12.3,3.3,5.3,2.1,–
"CCCCCCCCCCCCc1ccc2c(c1)OC[C@H](CCCCNC(=O)OC(C)(C)C)NC(=O)CN(C)C(=O)/C=C/[C@H](CO)NC2=O [PH908, tert-butyl (4-((3S,11R,E)-16-dodecyl-11-(hydroxymethyl)-7-methyl-5,8,13-trioxo-2,3,4,5,6,7,8,11,12,13-decahydrobenzo[n][1]oxa-[4,7,12]triazacyclopentadecin-3-yl)butyl)carbamate]",14.7,17.4,> 50,> 50,> 50,> 50,1.2,–,–,–
"Cn1c(COP(=O)(NCCBr)NCCBr)cnc1[N+](=O)[O-] [TH302, Evofosfamide, reference compound]",–,–,–,–,–,–,6.9,7.2,3.4,IC50 (HCT116 cells; [9]): 6.2 µM; IC50 (HCT116 cells; [10]): 43 µM; IC50 (PANC-1 cells; [11]): 9.4 µM; IC50 (PANC-1 cells; [12]): 69 µM; IC50 (BxPC3 cells; [13]): 21 µM; IC50 (BxPC3 cells; [14]): 71 µM
"C=C1/C=C/C(=O)N(C)CC(=O)N2CC(F)(F)C[C@H]2COc2cc(CCCCCCCCCCCC)ccc2C(=O)N1 [PH905, (S,E)-16-dodecyl-2,2-difluoro-7-methyl-11-methylene-2,3,6,7,11,12,19,19a-octahydro-1H,5H-benzo[n]pyrrolo[2,1-c][1]oxa-[4,7,12]triazacyclopentadecine-5,8,13-trione]",3.7,3.5,5.4,5.8,5.5,6.3,1.0,1.1,1.1,–
